The text below walks through data of US11020415B2, “Use of albiflorin in preparation of products for improving function of intestinal flora system” (priority 2016, dated 2021).

Assay [1] deals with intestinal flora in stressed rats. As to the kind of experiment: Targeted metabolomics of intestinal flora metabolism in chronic unpredictable mild stress (CUMS) model rats (PLS-DA, VIP analysis). Format: in vivo, rat. The method, then:
We established a chronic unpredictable mild stress (CUMS) model of rats, and used a new generation of targeted metabolomics method to study the metabolic function of intestinal flora in stressed rats.
(§1) We further administered the stressed model rats an albiflorin treatment for 7 consecutive days at each dose of 7 mg/k& for each treatment. 7 days later, we used metabolomics and a 16sDNA high-throughput metagenomic sequencing technology to re-evaluate the function and composition of intestinal flora in the rats. […] This was consistent with the results of analysis of flora composition.
As a positive drug, fluoxetine was continuously administered for 7 days at each dose of 10 mg/kg/d.

For assay [2] the test system is unchanged. The assay is described as follows: High-throughput 16s metagenomic sequencing of intestinal flora composition in CUMS model rats (cluster analysis). Format: in vivo, rat. Particulars: albiflorin 7 days. The method, then: as §1
FIG. 5 is a graph showing the cluster analysis of intestinal flora composition correlation.

A further assay has as its target cannabinoid receptor CB2 (Homo sapiens, UniProt P34972). As to the kind of experiment: Cannabinoid receptor CB2 activity (stated, no method). The following applies: stated as finding of the invention's research; no data or method printed.
Setting [3] is: after 7 days of administration of albiflorin.

Chain of cannabinoid receptor CB2 (P34972 whole entry): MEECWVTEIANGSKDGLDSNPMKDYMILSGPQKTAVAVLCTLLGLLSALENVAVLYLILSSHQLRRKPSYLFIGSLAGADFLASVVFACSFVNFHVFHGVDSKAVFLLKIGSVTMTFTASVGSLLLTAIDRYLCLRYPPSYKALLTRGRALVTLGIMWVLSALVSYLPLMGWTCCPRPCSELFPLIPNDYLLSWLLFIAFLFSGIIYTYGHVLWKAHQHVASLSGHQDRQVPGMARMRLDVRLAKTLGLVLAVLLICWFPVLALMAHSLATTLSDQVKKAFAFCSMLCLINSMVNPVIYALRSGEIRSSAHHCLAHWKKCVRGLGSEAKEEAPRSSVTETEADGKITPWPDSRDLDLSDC

Regarding `C[C@]12C[C@@H](O)[C@@H]3C[C@@]1(O[C@@H]1O[C@H](CO)[C@@H](O)[C@H](O)[C@H]1O)[C@@]3(COC(=O)c1ccccc1)C(=O)O2` [albiflorin], in assay [1] (setting [3]), the “Amounts of cholic acid, amino acids and vitamins (intestinal flora metabolites) compared with the depression group” value is reported as “increased”; the “Overall metabolism of intestinal flora compared with the depression group (VIP analysis)” value is given as “significantly improved”. The “Metabolism of intestinal flora relative to the normal group (PLS-DA multiple comparative analysis of metabolomics data)” value in assay [1] (albiflorin 7 consecutive days, 7 mg/k&, FIG. 1) is given as “almost completely overlapped with the normal group”. In assay [2], the “Amount of probiotic firmicutes, especially lactic acid bacteria, compared with the stressed rat model group” value is listed as “significantly increased” and the “Intestinal flora composition versus blank group (Control), cluster analysis” value is recorded as “no statistical difference (P>0.05)”. For the same molecule, the “Action at cannabinoid receptor CB2” value on cannabinoid receptor CB2 is “agonist”.

In the case of `CNCCC(Oc1ccc(C(F)(F)F)cc1)c1ccccc1` (stereo not shown) [fluoxetine, reference compound], the “Metabolism of rat intestinal flora relative to the normal state (multivariable PLS-DA analysis)” value in assay [1] (fluoxetine 7 days, 10 mg/kg/d, FIG. 6) is on record as “deviated the metabolism of rat intestinal flora more from the normal state”.
